These results are taken from ChEMBL document CHEMBL1201862, “PubChem BioAssay data set” (2004).

Common to all, as to assay: NCI anticancer screen, dose series, 48 h
For experiment [1], the system named is A549.
Experiment [2] relates to NCI-H226.
Experiment [3] deals with NCI-H23.
The test system of experiment [4] is NCI-H460.
Experiment [5] relates to NCI/ADR-RES.
The test system of experiment [6] is OVCAR-4.
The test system of experiment [7] is RXF 393.
Experiment [8] has as its system SF-268.
The subject of experiment [9] is SK-MEL-2.
Experiment [10] has as its system SR.
For experiment [11], the system named is SW-620.
The subject of experiment [12] is T47D.
The test system of experiment [13] is TK-10.
For experiment [14], the system named is CAKI-1.
Experiment [15] concerns HOP-62.
The subject of experiment [16] is HT-29.
For experiment [17], the system named is IGROV-1.
Experiment [18] deals with COLO 205.
Experiment [19] concerns EKVX.
Experiment [20] concerns HOP-92.

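All cell lines were grown in 96-well plates and treated with compound for 48 hours. GI50 = concentration required for 50% inhibition of growth.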 The source made the active and inactive calls. No stated cut-off is given here; in the data, active = GI50 up to about 1.1 µM and inactive = higher.

Consider `CCOC(=O)/C=C/CC(C)(C)COC(C)=O`, for which the GI50 is > 10 µM (inactive) in experiment [1]; 2.45 µM (inactive) in [2]; > 10 µM (inactive) in experiment [3]; > 10 µM (inactive) in experiment [4]; > 10 µM (inactive) in experiment [5]; > 10 µM (inactive) in experiment [6]. The GI50 in experiment [7] was 5.32 µM (inactive); in experiment [8] it was > 10 µM (inactive); in experiment [9] it was > 10 µM (inactive); in experiment [10], > 10 µM (inactive); in experiment [11] it was > 10 µM (inactive); in experiment [12], > 10 µM (inactive). For the same compound, the GI50 in experiment [13] is > 10 µM (inactive).

As for `COc1ccc(-c2c(C#N)c(N)n(C3OCC(O)C(O)C3O)c(=S)c2C#N)cc1` (stereo unspecified), the GI50 in experiment [1], in [14], in experiment [15], in [16], in experiment [17] and in experiment [2] was > 100 µM (inactive) each time. For the same compound, the GI50 is > 100 µM (inactive) in experiment [3]; > 100 µM (inactive) in [4]; > 100 µM (inactive) in experiment [5]; > 100 µM (inactive) in [7]; > 100 µM (inactive) in [8]; 21.6 µM (inactive) in experiment [9]. Further, the GI50 in experiment [10] was > 100 µM (inactive); in [11], > 100 µM (inactive); in experiment [12], 95.9 µM (inactive); in [13], > 100 µM (inactive).

For `COP(=O)(Cc1ccccc1)Cc1ccccc1`, the GI50 in experiment [1], in experiment [14], in [18], in experiment [19], in experiment [15] and in [16] was > 100 µM (inactive) in each case. The GI50 in experiment [17], in experiment [2], in [3], in experiment [4], in experiment [5] and in experiment [6] was > 100 µM (inactive) throughout. For the same compound, the GI50 is 86.1 µM (inactive) in [7]; > 100 µM (inactive) in [8]; > 100 µM (inactive) in experiment [9]; > 100 µM (inactive) in experiment [10]; > 100 µM (inactive) in experiment [11]; > 100 µM (inactive) in [12]. Also, in experiment [13], the GI50 is > 100 µM (inactive).

With `Oc1ccc(/C=N/N=c2\[nH][nH]/c(=N\N=C\c3ccc(O)cc3O)c3ccccc23)c(O)c1`, the GI50 in experiment [1] is 0.315 µM (active); in experiment [14], 0.268 µM (active); in [18] it was 0.581 µM (active); in experiment [19] it was 0.211 µM (active); in experiment [15] it was 0.304 µM (active); in experiment [16], 0.331 µM (active). The GI50 was 0.327 µM (active) in experiment [17]; 0.326 µM (active) in experiment [3]; 0.355 µM (active) in experiment [4]; 0.427 µM (active) in experiment [5]; 0.126 µM (active) in [8]; 0.288 µM (active) in experiment [9]. Besides, the GI50 in [10] was 0.136 µM (active); in experiment [11], 0.385 µM (active); in [12], 0.271 µM (active).

In the case of `CC1(C)CC(=O)c2c(nc3ccc4ccccc4c3c2-c2ccc(NC(=O)CCCC(=O)Nc3ccc(-c4c5c(nc6ccc7ccccc7c46)CC(C)(C)CC5=O)cc3)cc2)C1`, the GI50 in experiment [1], in [14], in experiment [18], in experiment [19], in experiment [15] and in experiment [20] was > 100 µM (inactive) in each case. In addition, the GI50 in [16], in [17], in experiment [2], in experiment [3], in experiment [4] and in [5] was > 100 µM (inactive) in each case. In addition, the GI50 in [8], in [9], in [10], in [11], in experiment [12] and in experiment [13] was > 100 µM (inactive) throughout.

Consider `CC1CN=C(N(C)C(=O)Nc2ccc(Cl)cc2)S1` (stereo unspecified), for which the GI50 in [1] is 16.7 µM (inactive); in [14] it was 3.64 µM (inactive); in experiment [18], 13.4 µM (inactive); in experiment [19], 21.4 µM (inactive); in experiment [15], 48.2 µM (inactive); in [20], 29.9 µM (inactive). In addition, the GI50 in [16] was 31.3 µM (inactive); in experiment [17], 4.56 µM (inactive); in experiment [3], 21.3 µM (inactive); in experiment [4], 3.77 µM (inactive); in experiment [5], 1.9 µM (inactive); in [6] it was 65.2 µM (inactive). Further, the GI50 in [8] was 41.5 µM (inactive); in experiment [9], 15.4 µM (inactive); in [10], 12.3 µM (inactive); in experiment [11], 20.4 µM (inactive); in [12], 4.19 µM (inactive); in [13], 29.1 µM (inactive).

For `CC(C)C(O)(C(=O)OCN1C(=O)C2C3C=CC(C2C1=O)C1C2C(=O)N(COC(=O)C(O)(C(C)C)C(C)O)C(=O)C2C31)C(C)O` (stereo unspecified), the GI50 in experiment [1], in experiment [14], in [18], in experiment [19], in experiment [15] and in [16] was > 100 µM (inactive) in each case. Besides, the GI50 in [17], in [2], in experiment [3], in experiment [4], in experiment [5] and in [6] was > 100 µM (inactive) in each case. The GI50 in experiment [7], in experiment [8], in experiment [9], in experiment [10], in experiment [11] and in experiment [12] was > 100 µM (inactive) each time. Further, the GI50 in experiment [13] was > 100 µM (inactive).

In the case of `CC(Cc1ccc(Cl)cc1Cl)NO` (stereo unspecified), the GI50 in [1] was > 100 µM (inactive); in experiment [14], > 100 µM (inactive); in experiment [18], > 100 µM (inactive); in experiment [19], 58.2 µM (inactive); in [15], > 100 µM (inactive); in experiment [16], > 100 µM (inactive). The GI50 in experiment [17] was > 100 µM (inactive); in experiment [2], 46.3 µM (inactive); in [3] it was > 100 µM (inactive); in [5], > 100 µM (inactive); in experiment [6], > 100 µM (inactive); in experiment [7] it was > 100 µM (inactive). Moreover, the GI50 in [8], in experiment [9], in [10], in experiment [11], in [12] and in experiment [13] was > 100 µM (inactive) each time.

`COc1ccc(OC)c2c(C(C)=O)cccc12`: the GI50 in [1] was > 100 µM (inactive); in experiment [18], > 100 µM (inactive); in experiment [19], > 100 µM (inactive); in experiment [15], > 100 µM (inactive); in experiment [17] it was > 100 µM (inactive); in [2] it was 46.2 µM (inactive). In addition, the GI50 in [3], in [4], in experiment [5], in experiment [7], in [8] and in experiment [10] was > 100 µM (inactive) in each case. Besides, the GI50 in experiment [11], in [12] and in experiment [13] was > 100 µM (inactive) each time.

For `NCOC(=O)Cc1ccc(Br)cc1`, the GI50 in [1], in [18], in [19], in experiment [15], in experiment [20] and in experiment [16] was > 100 µM (inactive) each time. Also, the GI50 in experiment [17], in [2], in [3], in [4], in experiment [5] and in experiment [7] was > 100 µM (inactive) throughout. Also, the GI50 in experiment [8] is > 100 µM (inactive); in [9] it was > 100 µM (inactive); in experiment [10], 0.383 µM (active); in experiment [11], > 100 µM (inactive); in [12], > 100 µM (inactive); in experiment [13] it was > 100 µM (inactive).

Regarding `Cc1ccc(Nc2nc(NNC(=O)Cc3ccccc3)nc(NNC(=O)c3ccncc3)n2)cc1`, the GI50 in experiment [1], in [14], in experiment [18], in experiment [19], in [15] and in experiment [20] was > 10 µM (inactive) each time. In addition, the GI50 in experiment [16], in experiment [17], in [3], in [4], in [5] and in experiment [6] was > 10 µM (inactive) throughout. Also, the GI50 in experiment [8], in experiment [10], in experiment [11], in [12] and in experiment [13] was > 10 µM (inactive) throughout.
